Data from ChEMBL document CHEMBL3885861, “Open TG-GATES”.

Species: Rattus norvegicus
Assay: Open TG-GATES - Regimen: Single
Type: toxicity, organism-based, Sprague-Dawley
Parameters: regimen Single, gender Male, age 6 weeks
Conditions: in vivo, po, 250 mg/kg, route gavage, dose level High; for APTT / Bas / Eos / Fbg / Hb / Ht / Lym / MCH / MCHC / MCV / Mono / Neu / PT / Plat / RBC / Ret / WBC: tissue Blood; for KIDNEY_L / KIDNEY_R / KIDNEY_TOTAL: tissue Kidney; for LIVER: tissue Liver; for A/G / ALP / ALT / AST / BUN / CRE / Ca / Cl / DBIL / GLC / IP / K / LDH / Na / PL / RALB / TBIL / TC / TG / TP / gamma-GTP: tissue Plasma

## CCSCC[C@H](N)C(=O)O [ETHIONINE]
3 h
  TERMINAL_BW: 215.1 g
  APTT: 18.5 s
  Bas: 0%
  Eos: 1%
  Fbg: 205.8 mg/dL
  Hb: 13.6 g/dL
  Ht: 40%
  Lym: 74%
  MCH: 21.4 pg
  MCHC: 34%
  MCV: 62.9 fL
  Mono: 2.6%
  Neu: 20.6%
  PT: 12.5 s
  Plat: 117.7 x10_4/uL
  RBC: 635.6 x10_4/ul
  Ret: 7%
  WBC: 90.5 x10_2/uL
  KIDNEY_L: 1 g
  KIDNEY_R: 1 g
  KIDNEY_TOTAL: 2 g
  LIVER: 9.7 g
  A/G: 1.4
  ALP: 1004.6 IU/L
  ALT: 37.6 IU/L
  AST: 68 IU/L
  BUN: 10.6 mg/dL
  CRE: 0.4 mg/dL
  Ca: 10.3 mg/dL
  Cl: 100.8 meq/L
  DBIL: 0.054 mg/dL
  GLC: 210.4 mg/dL
  IP: 9.8 mg/dL
  K: 3.8 meq/L
  LDH: 183.6 IU/L
  Na: 139.6 meq/L
  PL: 127.8 mg/dL
  RALB: 3.2 g/dL
  TBIL: 0.1 mg/dL
  TC: 71 mg/dL
  TG: 43.4 mg/dL
  TP: 5.4 g/dL
  gamma-GTP: 1.2 IU/L
6 h
  TERMINAL_BW: 215.3 g
  APTT: 19.4 s
  Bas: 0%
  Eos: 1%
  Fbg: 203.2 mg/dL
  Hb: 13 g/dL
  Ht: 38.2%
  Lym: 76%
  MCH: 21.4 pg
  MCHC: 34.1%
  MCV: 62.6 fL
  Mono: 2.8%
  Neu: 19.2%
  PT: 13.1 s
  Plat: 122.2 x10_4/uL
  RBC: 610.4 x10_4/ul
  Ret: 7.1%
  WBC: 98.9 x10_2/uL
  KIDNEY_L: 1 g
  KIDNEY_R: 1 g
  KIDNEY_TOTAL: 1.9 g
  LIVER: 9.2 g
  A/G: 1.3
  ALP: 809.2 IU/L
  ALT: 33.8 IU/L
  AST: 64.2 IU/L
  BUN: 10.4 mg/dL
  CRE: 0.4 mg/dL
  Ca: 10.2 mg/dL
  Cl: 102 meq/L
  DBIL: 0.058 mg/dL
  GLC: 198.8 mg/dL
  IP: 9.6 mg/dL
  K: 3.9 meq/L
  LDH: 213.8 IU/L
  Na: 139 meq/L
  PL: 116.6 mg/dL
  RALB: 3 g/dL
  TBIL: 0.1 mg/dL
  TC: 64.6 mg/dL
  TG: 44.4 mg/dL
  TP: 5.3 g/dL
  gamma-GTP: 1.6 IU/L
9 h
  TERMINAL_BW: 212.6 g
  APTT: 20.5 s
  Bas: 0%
  Eos: 1%
  Fbg: 214.2 mg/dL
  Hb: 13.3 g/dL
  Ht: 39.1%
  Lym: 73.6%
  MCH: 21.2 pg
  MCHC: 34.2%
  MCV: 62 fL
  Mono: 3.2%
  Neu: 21.2%
  PT: 13.3 s
  Plat: 127.2 x10_4/uL
  RBC: 630.2 x10_4/ul
  Ret: 7%
  WBC: 72.8 x10_2/uL
  KIDNEY_L: 1 g
  KIDNEY_R: 1 g
  KIDNEY_TOTAL: 2 g
  LIVER: 9 g
  A/G: 1.6
  ALP: 774 IU/L
  ALT: 29.8 IU/L
  AST: 58.4 IU/L
  BUN: 8 mg/dL
  CRE: 0.3 mg/dL
  Ca: 10.4 mg/dL
  Cl: 101.4 meq/L
  DBIL: 0.072 mg/dL
  GLC: 199 mg/dL
  IP: 9.3 mg/dL
  K: 3.6 meq/L
  LDH: 195 IU/L
  Na: 139.6 meq/L
  PL: 111.2 mg/dL
  RALB: 3.4 g/dL
  TBIL: 0.1 mg/dL
  TC: 57.2 mg/dL
  TG: 77.4 mg/dL
  TP: 5.6 g/dL
  gamma-GTP: 1.2 IU/L
24 h
  TERMINAL_BW: 221.6 g
  APTT: 22 s
  Bas: 0%
  Eos: 1%
  Fbg: 210.4 mg/dL
  Hb: 13.9 g/dL
  Ht: 41%
  Lym: 74.4%
  MCH: 21.3 pg
  MCHC: 34%
  MCV: 62.5 fL
  Mono: 5.8%
  Neu: 16.8%
  PT: 14.4 s
  Plat: 116 x10_4/uL
  RBC: 655 x10_4/ul
  Ret: 6.3%
  WBC: 94.1 x10_2/uL
  KIDNEY_L: 1 g
  KIDNEY_R: 1 g
  KIDNEY_TOTAL: 2 g
  LIVER: 10.6 g
  A/G: 1.6
  ALP: 988 IU/L
  ALT: 39 IU/L
  AST: 74.4 IU/L
  BUN: 16 mg/dL
  CRE: 0.4 mg/dL
  Ca: 10.6 mg/dL
  Cl: 101.4 meq/L
  DBIL: 0.1 mg/dL
  GLC: 198.2 mg/dL
  IP: 8.8 mg/dL
  K: 3.7 meq/L
  LDH: 211 IU/L
  Na: 140 meq/L
  PL: 122.6 mg/dL
  RALB: 3.4 g/dL
  TBIL: 0.2 mg/dL
  TC: 47.2 mg/dL
  TG: 144 mg/dL
  TP: 5.6 g/dL
  gamma-GTP: 1.2 IU/L
